Data published in patent publication US20120202690A1, “HERBICIDAL COMPOUNDS” (SYNGENTA LIMITED, priority 2009, published 2012).

How the values were obtained:
Assay type in all cases: in vivo
[1] = system: Solanum nigrum (SOLNI); test: Pre-emergence biological efficacy, glasshouse, 1000 g/ha, evaluated after 13 days (100=total damage to plant; 0=no damage to plant); settings: Solanum nigrum, 312 h, rate 1,000 g/ha, read-out: Percentage damage caused to weed species, pre-emergence, SOLNI
In short: (§1)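 Standard soil in pots received the seeds. Growth took place in a glasshouse held at 24/16° C. day/night, 65% humidity and 14 h of light.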

[2] = system: Ipomoea hederaceae (IPOHE); test: as above; settings: Ipomoea, 312 h, rate 1,000 g/ha, read-out: Percentage damage caused to weed species, pre-emergence, IPOHE
In short: as §1

[3] = system: Setaria faberi (SETFA); test: as above; settings: Setaria faberi, 312 h, rate 1,000 g/ha, read-out: Percentage damage caused to weed species, pre-emergence, SETFA
In short: as §1

[4] = system: Alopecurus myosuroides (ALOMY); test: as above; settings: Alopecurus myosuroides, 312 h, rate 1,000 g/ha, read-out: Percentage damage caused to weed species, pre-emergence, ALOMY
In short: as §1

[5] = system: Amaranthus retroflexus (AMARE); test: as above; settings: Amaranthus retroflexus, 312 h, rate 1,000 g/ha, read-out: Percentage damage caused to weed species, pre-emergence, AMARE
In short: as §1

[6] = system: Echinochloa crus-galli (ECHCG); test: as above; settings: Echinochloa crus-galli, 312 h, rate 1,000 g/ha, read-out: Percentage damage caused to weed species, pre-emergence, ECHCG
In short: as §1

[7] = system: Solanum nigrum (SOLNI); test: Post-emergence biological efficacy, glasshouse, 500 or 1000 g/ha, evaluated after 13 days (100=total damage to plant; 0=no damage to plant); settings: Solanum nigrum, 312 h, rate 1,000 g/ha, read-out: Percentage damage caused to weed species, post-emergence, SOLNI
In short: (§2)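 Sow seeds in standard potting soil. Treat after emergence. Keep treated plants in the glasshouse at 24° C. by day and 16° C. by night, with a 14-hour photoperiod, 65% humidity and two waterings daily.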

[8] = system: Ipomoea hederaceae (IPOHE); test: as above; settings: Ipomoea, 312 h, rate 1,000 g/ha, read-out: Percentage damage caused to weed species, post-emergence, IPOHE
In short: as §2

[9] = system: Setaria faberi (SETFA); test: as above; settings: Setaria faberi, 312 h, rate 1,000 g/ha, read-out: Percentage damage caused to weed species, post-emergence, SETFA
In short: as §2

[10] = system: Echinochloa crusgaffi (ECHCG); test: as above; settings: Echinochloa, 312 h, rate 1,000 g/ha, read-out: Percentage damage caused to weed species, post-emergence, ECHCG
In short: as §2

[11] = system: Alopecurus myosuroides (ALOMY); test: as above; settings: Alopecurus myosuroides, 312 h, rate 1,000 g/ha, read-out: Percentage damage caused to weed species, post-emergence, ALOMY
In short: as §2

[12] = system: Amaranthus retroflexus (AMARE); test: as above; settings: Amaranthus retroflexus, 312 h, rate 1,000 g/ha, read-out: Percentage damage caused to weed species, post-emergence, AMARE
In short: as §2

COc1ccc(Cn2cc(C)c3c(C(=O)O)nc(-c4ccc(Cl)c(OC)c4F)nc32)cc1 [Compound 10-63, 4-Carboxy-2-(4-chloro-2-fluoro-3-methoxyphenyl)-7-(4-methoxyphenyl-methyl)-5-methyl-7H-pyrrolo[2,3-d]pyrimidine]
pest or weed control at 1000 g/ha [1]: 0% | pest or weed control at 1000 g/ha [2]: 0% | pest or weed control at 1000 g/ha [3]: 0% | pest or weed control at 1000 g/ha [4]: 0% | pest or weed control at 1000 g/ha [5]: 0% | pest or weed control at 1000 g/ha [6]: 0% | pest or weed control at 1000 g/ha [7]: 20% | pest or weed control at 1000 g/ha [8]: 20% | pest or weed control at 1000 g/ha [9]: 0% | pest or weed control at 1000 g/ha [10]: 0% | pest or weed control at 1000 g/ha [11]: 0% | pest or weed control at 1000 g/ha [12]: 10%

COC(=O)c1nc(-c2ccc(Cl)c(F)c2)nc2c1ccn2Cc1ccco1 [Compound 11-18, 2-(4-Chloro-3-fluorophenyl)-7-(2-furanyl-methyl)-4-methoxycarbonyl-7H-pyrrolo[2,3-d]pyrimidine]
pest or weed control at 1000 g/ha [1]: 0% | pest or weed control at 1000 g/ha [2]: 0% | pest or weed control at 1000 g/ha [3]: 0% | pest or weed control at 1000 g/ha [4]: 0% | pest or weed control at 1000 g/ha [5]: 0% | pest or weed control at 1000 g/ha [6]: 0% | pest or weed control at 1000 g/ha [7]: 50% | pest or weed control at 1000 g/ha [8]: 20% | pest or weed control at 1000 g/ha [9]: 0% | pest or weed control at 1000 g/ha [10]: 0% | pest or weed control at 1000 g/ha [11]: 0% | pest or weed control at 1000 g/ha [12]: 0%

Cc1cc2c(C(=O)O)nc(-c3ccc(Cl)c(F)c3)nc2n1Cc1ccco1 [Compound 11-21, 4-Carboxy-2-(4-chloro-3-fluorophenyl)-7-(2-furanyl-methyl)-6-methyl-7H-pyrrolo[2,3-d]pyrimidine]
pest or weed control at 1000 g/ha [1]: 0% | pest or weed control at 1000 g/ha [2]: 0% | pest or weed control at 1000 g/ha [3]: 0% | pest or weed control at 1000 g/ha [4]: 0% | pest or weed control at 1000 g/ha [5]: 0% | pest or weed control at 1000 g/ha [6]: 0% | pest or weed control at 1000 g/ha [7]: 50% | pest or weed control at 1000 g/ha [8]: 20% | pest or weed control at 1000 g/ha [9]: 0% | pest or weed control at 1000 g/ha [10]: 0% | pest or weed control at 1000 g/ha [11]: 0% | pest or weed control at 1000 g/ha [12]: 0%

COC(=O)c1nc(-c2ccc(Cl)c(OC)c2F)nc2c1cc(C)n2Cc1ccco1 [Compound 11-66, 2-(4-Chloro-2-fluoro-3-methoxyphenyl)-7-(2-furanylmethyl)-4-methoxycarbonyl-6-methyl-7H-pyrrolo[2,3-d]pyrimidine]
pest or weed control at 1000 g/ha [1]: 0% | pest or weed control at 1000 g/ha [2]: 0% | pest or weed control at 1000 g/ha [3]: 0% | pest or weed control at 1000 g/ha [4]: 0% | pest or weed control at 1000 g/ha [5]: 0% | pest or weed control at 1000 g/ha [6]: 0% | pest or weed control at 1000 g/ha [7]: 50% | pest or weed control at 1000 g/ha [8]: 30% | pest or weed control at 1000 g/ha [9]: 10% | pest or weed control at 1000 g/ha [10]: 20% | pest or weed control at 1000 g/ha [11]: 10% | pest or weed control at 1000 g/ha [12]: 20%

COC(=O)c1nc(Cl)nc2c1cc(C)n2Cc1ccco1 [Compound 11-126, 2-chloro-7-(2-furanylmethyl)-4-methoxycarbonyl-6-methyl-7H-pyrrolo[2,3-d]pyrimidine]
pest or weed control at 1000 g/ha [1]: 0% | pest or weed control at 1000 g/ha [2]: 0% | pest or weed control at 1000 g/ha [3]: 0% | pest or weed control at 1000 g/ha [4]: 0% | pest or weed control at 1000 g/ha [5]: 0% | pest or weed control at 1000 g/ha [6]: 0% | pest or weed control at 1000 g/ha [7]: 20% | pest or weed control at 1000 g/ha [8]: 0% | pest or weed control at 1000 g/ha [9]: 0% | pest or weed control at 1000 g/ha [10]: 0% | pest or weed control at 1000 g/ha [11]: 0% | pest or weed control at 1000 g/ha [12]: 0%

COc1c(Cl)ccc(-c2nc(C(=O)O)c3c(C)cn(Cc4ccc(C(F)(F)F)o4)c3n2)c1F [Compound 12-63, 4-Carboxy-2-(4-chloro-2-fluoro-3-methoxyphenyl)-7-(5-trifluoromethyl-furan-2-yl-methyl)-5-methyl-7H-pyrrolo[2,3-d]pyrimidine]
pest or weed control at 1000 g/ha [1]: 0% | pest or weed control at 1000 g/ha [2]: 10% | pest or weed control at 1000 g/ha [3]: 20% | pest or weed control at 1000 g/ha [4]: 0% | pest or weed control at 1000 g/ha [5]: 60% | pest or weed control at 1000 g/ha [6]: 0% | pest or weed control at 1000 g/ha [7]: 70% | pest or weed control at 1000 g/ha [8]: 50% | pest or weed control at 1000 g/ha [9]: 0% | pest or weed control at 1000 g/ha [10]: 0% | pest or weed control at 1000 g/ha [11]: 0% | pest or weed control at 1000 g/ha [12]: 30%

COC(=O)c1nc(-c2ccc(Cl)c(OC)c2F)nc2c1c(C)cn2Cc1ccc(C(F)(F)F)o1 [Compound 12-64]
pest or weed control at 1000 g/ha [1]: 0% | pest or weed control at 1000 g/ha [2]: 0% | pest or weed control at 1000 g/ha [3]: 0% | pest or weed control at 1000 g/ha [4]: 0% | pest or weed control at 1000 g/ha [5]: 0% | pest or weed control at 1000 g/ha [6]: 0% | pest or weed control at 1000 g/ha [7]: 30% | pest or weed control at 1000 g/ha [8]: 50% | pest or weed control at 1000 g/ha [9]: 30% | pest or weed control at 1000 g/ha [10]: 10% | pest or weed control at 1000 g/ha [11]: 10% | pest or weed control at 1000 g/ha [12]: 20%

O=C(O)c1nc(-c2ccc(Cl)c(F)c2)nc2c1ccn2Cc1ncccc1Cl [Compound 14-17, 4-Carboxy-2-(4-chloro-3-fluorophenyl)-7-(3-chloropyrid-2-yl-methyl)-7H-pyrrolo[2,3-d]pyrimidine]
pest or weed control at 1000 g/ha [1]: 0% | pest or weed control at 1000 g/ha [2]: 0% | pest or weed control at 1000 g/ha [3]: 0% | pest or weed control at 1000 g/ha [4]: 0% | pest or weed control at 1000 g/ha [5]: 0% | pest or weed control at 1000 g/ha [6]: 0% | pest or weed control at 1000 g/ha [7]: 40% | pest or weed control at 1000 g/ha [8]: 10% | pest or weed control at 1000 g/ha [9]: 0% | pest or weed control at 1000 g/ha [10]: 0% | pest or weed control at 1000 g/ha [11]: 0% | pest or weed control at 1000 g/ha [12]: 0%

COC(=O)c1nc(-c2ccc(Cl)c(OC)c2F)nc2c1c(C)cn2C(=O)C(C)(C)C [Compound 16-64, 7-t-Butylcarbonyl-2-(4-chloro-2-fluoro-3-methoxyphenyl)-4-methoxycarbonyl-5-methyl-7H-pyrrolo[2,3-d]pyrimidine]
pest or weed control at 1000 g/ha [1]: 0% | pest or weed control at 1000 g/ha [2]: 0% | pest or weed control at 1000 g/ha [3]: 0% | pest or weed control at 1000 g/ha [4]: 0% | pest or weed control at 1000 g/ha [5]: 0% | pest or weed control at 1000 g/ha [6]: 0% | pest or weed control at 1000 g/ha [7]: 60% | pest or weed control at 1000 g/ha [8]: 70% | pest or weed control at 1000 g/ha [9]: 0% | pest or weed control at 1000 g/ha [10]: 0% | pest or weed control at 1000 g/ha [11]: 0% | pest or weed control at 1000 g/ha [12]: 10%

COC(=O)c1nc(-c2ccc(Cl)c(OC)c2F)nc2c1c(C)cn2C(=O)OC [Compound 17-64, 2-(4-Chloro-2-fluoro-3-methoxyphenyl)-4,7-di(methoxycarbonyl)-5-methyl-7H-pyrrolo[2,3-d]pyrimidine]
pest or weed control at 1000 g/ha [1]: 0% | pest or weed control at 1000 g/ha [2]: 0% | pest or weed control at 1000 g/ha [3]: 0% | pest or weed control at 1000 g/ha [4]: 0% | pest or weed control at 1000 g/ha [5]: 0% | pest or weed control at 1000 g/ha [6]: 0% | pest or weed control at 1000 g/ha [7]: 20% | pest or weed control at 1000 g/ha [8]: 0% | pest or weed control at 1000 g/ha [9]: 0% | pest or weed control at 1000 g/ha [10]: 0% | pest or weed control at 1000 g/ha [11]: 0% | pest or weed control at 1000 g/ha [12]: 0%

COC(=O)c1nc(-c2ccc(Cl)c(OC)c2F)nc2c1c(C)cn2S(C)(=O)=O [Compound 18-64, 2-(4-chloro-2-fluoro-3-methoxyphenyl)-4-methoxycarbonyl-5-methyl-7-methylsulphonyl-7H-pyrrolo[2,3-d]pyrimidine]
pest or weed control at 1000 g/ha [1]: 0% | pest or weed control at 1000 g/ha [2]: 0% | pest or weed control at 1000 g/ha [3]: 0% | pest or weed control at 1000 g/ha [4]: 0% | pest or weed control at 1000 g/ha [5]: 0% | pest or weed control at 1000 g/ha [6]: 0% | pest or weed control at 1000 g/ha [7]: 40% | pest or weed control at 1000 g/ha [8]: 40% | pest or weed control at 1000 g/ha [9]: 30% | pest or weed control at 1000 g/ha [10]: 10% | pest or weed control at 1000 g/ha [11]: 10% | pest or weed control at 1000 g/ha [12]: 20%
